Experimental data from ChEMBL document CHEMBL1201862, “PubChem BioAssay data set” (2004).
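A five-concentration, 48-hour dose response in 96-well plates underlies each endpoint, interpolated linearly between surrounding concentrations. Abbreviation: GI50, concentration required for 50% inhibition of growth.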 Calls of active or inactive are those of the source. Cut-off read from the data, not from the text of the source: active = GI50 up to about 1.1 µM and inactive = higher.

What was measured:
Experiment in all cases: NCI tumour cell line growth inhibition, 48 h
Malme-3M = test system: Malme-3M
MDA-MB-231 = test system: MDA-MB-231
NCI/ADR-RES = test system: NCI/ADR-RES
MCF7 = test system: MCF7
EKVX = test system: EKVX
SK-MEL-5 = test system: SK-MEL-5
HT-29 = test system: HT-29
786-0 = test system: 786-0
SF-268 = test system: SF-268
SK-OV-3 = test system: SK-OV-3
SNB-19 = test system: SNB-19
UO-31 = test system: UO-31
BT-549 = test system: BT-549
NCI-H522 = test system: NCI-H522
UACC-62 = test system: UACC-62
SF-295 = test system: SF-295
NCI-H226 = test system: NCI-H226
SK-MEL-28 = test system: SK-MEL-28
HOP-92 = test system: HOP-92

Measured: GI50

COc1cc(-c2nc3ccccn3c2/N=C/c2cc(Br)cc(Br)c2O)ccc1O
inactive: Malme-3M 23.3 µM | MDA-MB-231 15.6 µM | NCI/ADR-RES 22 µM | MCF7 22.3 µM | EKVX 19.1 µM | SK-MEL-5 25.5 µM | HT-29 22.3 µM | 786-0 18 µM | SF-268 14.3 µM | SK-OV-3 23.9 µM | SNB-19 26.1 µM | UO-31 13.7 µM | BT-549 20.3 µM | NCI-H522 23.2 µM | UACC-62 27 µM | SF-295 20.7 µM | NCI-H226 24.1 µM | SK-MEL-28 16.6 µM | HOP-92 23.4 µM

COc1ccc(NC(=S)NC(=O)c2ccc3c(c2)Sc2ccccc2O3)c([N+](=O)[O-])c1
inactive: Malme-3M 14.4 µM | MDA-MB-231 22.9 µM | NCI/ADR-RES 33.6 µM | MCF7 27.6 µM | SK-MEL-5 20.6 µM | HT-29 76.6 µM | 786-0 17.9 µM | SF-268 19.4 µM | SK-OV-3 29.9 µM | SNB-19 21.9 µM | UO-31 25.6 µM | BT-549 37.1 µM | NCI-H522 14.9 µM | UACC-62 30.3 µM | SF-295 92 µM | NCI-H226 > 100 µM | SK-MEL-28 40.1 µM | HOP-92 19.2 µM

Nc1ncnc2oc(C3OC(COC(=O)c4ccccc4)C(OC(=O)c4ccccc4)C3OC(=O)c3ccccc3)nc12 (stereo not drawn)
inactive: Malme-3M 96.2 µM | MDA-MB-231 > 100 µM | NCI/ADR-RES > 100 µM | MCF7 > 100 µM | EKVX > 100 µM | SK-MEL-5 > 100 µM | HT-29 > 100 µM | 786-0 > 100 µM | SF-268 > 100 µM | SK-OV-3 > 100 µM | SNB-19 > 100 µM | UO-31 > 100 µM | BT-549 > 100 µM | NCI-H522 > 100 µM | UACC-62 74.8 µM | SF-295 > 100 µM | NCI-H226 > 100 µM | SK-MEL-28 > 100 µM | HOP-92 > 100 µM

O=C(Nc1cnc(O)nc1O)Oc1ccccc1
inactive: Malme-3M > 100 µM | MDA-MB-231 > 100 µM | NCI/ADR-RES > 100 µM | MCF7 > 100 µM | EKVX > 100 µM | SK-MEL-5 > 100 µM | HT-29 > 100 µM | 786-0 > 100 µM | SF-268 > 100 µM | SK-OV-3 > 100 µM | SNB-19 > 100 µM | UO-31 > 100 µM | BT-549 > 100 µM | NCI-H522 > 100 µM | UACC-62 > 100 µM | SF-295 > 100 µM | NCI-H226 > 100 µM | SK-MEL-28 > 100 µM | HOP-92 > 100 µM

CC(C)(CN1CCCCC1)C(=O)CC(SCCS(=O)(=O)O)c1ccccc1 (stereo not drawn)
inactive: Malme-3M 12.7 µM | MDA-MB-231 13.7 µM | NCI/ADR-RES 13.4 µM | MCF7 10.2 µM | EKVX 14.1 µM | SK-MEL-5 16.3 µM | HT-29 11.4 µM | 786-0 11 µM | SF-268 10 µM | SK-OV-3 55 µM | SNB-19 17.5 µM | UO-31 12.1 µM | BT-549 15.3 µM | NCI-H522 3.11 µM | UACC-62 14 µM | SF-295 10.9 µM | NCI-H226 27.7 µM | HOP-92 5.64 µM

CC(=O)OCC1OC(n2c(-c3cccs3)c3c(c(C#N)c2=S)-c2ccccc2CC3)C(OC(C)=O)C(OC(C)=O)C1OC(C)=O (stereo not drawn)
inactive: Malme-3M 7.36 µM | MDA-MB-231 16.6 µM | NCI/ADR-RES 17.7 µM | MCF7 6.01 µM | EKVX 5.53 µM | SK-MEL-5 6.18 µM | HT-29 5.31 µM | 786-0 9.27 µM | SF-268 14.9 µM | SK-OV-3 20.2 µM | SNB-19 13 µM | UO-31 2.97 µM | BT-549 11.7 µM | NCI-H522 10.7 µM | UACC-62 4.17 µM | SF-295 13.7 µM | NCI-H226 28.4 µM | SK-MEL-28 13.7 µM | HOP-92 2.51 µM

COc1cc2ccc1OCc1cccc(n1)COc1ccc(cc1OC)/C=N\CCNCC/N=C\2
inactive: Malme-3M > 100 µM | MDA-MB-231 35.2 µM | NCI/ADR-RES > 100 µM | MCF7 > 100 µM | EKVX > 100 µM | SK-MEL-5 > 100 µM | HT-29 > 100 µM | 786-0 > 100 µM | SF-268 80.9 µM | SK-OV-3 63.4 µM | SNB-19 > 100 µM | UO-31 > 100 µM | BT-549 42.5 µM | NCI-H522 34.4 µM | SF-295 41.7 µM | NCI-H226 > 100 µM | SK-MEL-28 > 100 µM | HOP-92 48.4 µM

CC(=O)OCCc1cc2ccccc2oc1=O
inactive: Malme-3M > 100 µM | MDA-MB-231 > 100 µM | NCI/ADR-RES > 100 µM | MCF7 > 100 µM | EKVX 86.7 µM | SK-MEL-5 > 100 µM | HT-29 > 100 µM | 786-0 > 100 µM | SF-268 > 100 µM | SNB-19 > 100 µM | UO-31 > 100 µM | BT-549 > 100 µM | NCI-H522 > 100 µM | UACC-62 > 100 µM | SF-295 > 100 µM | NCI-H226 > 100 µM | SK-MEL-28 > 100 µM | HOP-92 > 100 µM

CCOC(=O)C1=C(C)N(Cc2ccccc2)C2(O)C(OC)CC(=O)C3C(=O)N(c4ccccc4)C(=O)C132 (stereo not drawn)
inactive: Malme-3M 14.5 µM | MDA-MB-231 13.5 µM | NCI/ADR-RES 13.8 µM | MCF7 3.61 µM | EKVX 23.7 µM | SK-MEL-5 10.3 µM | HT-29 4.9 µM | 786-0 8.07 µM | SF-268 9.33 µM | SNB-19 16.3 µM | UO-31 13.3 µM | BT-549 4.97 µM | NCI-H522 5.98 µM | UACC-62 5.66 µM | SF-295 15.2 µM | NCI-H226 15.1 µM | SK-MEL-28 7.33 µM | HOP-92 14.2 µM

FC(F)(F)c1ccc(C2ON=C(c3ccccc3)N2C23CC4CC(CC(C4)C2)C3)cc1 (stereo not drawn)
inactive: Malme-3M > 10 µM | MDA-MB-231 > 10 µM | NCI/ADR-RES > 10 µM | MCF7 1.39 µM | EKVX > 10 µM | SK-MEL-5 > 10 µM | HT-29 > 10 µM | 786-0 > 10 µM | SF-268 > 10 µM | SK-OV-3 > 10 µM | SNB-19 > 10 µM | BT-549 > 10 µM | NCI-H522 > 10 µM | UACC-62 > 10 µM | SF-295 > 10 µM | NCI-H226 > 10 µM | SK-MEL-28 > 10 µM | HOP-92 > 10 µM

CN(O)C(=O)Cc1ccc(OCc2cccc(Cl)c2)cc1
inactive: MDA-MB-231 > 100 µM | NCI/ADR-RES > 100 µM | MCF7 > 100 µM | EKVX > 100 µM | SK-MEL-5 > 100 µM | HT-29 > 100 µM | 786-0 > 100 µM | SF-268 > 100 µM | SK-OV-3 > 100 µM | SNB-19 > 100 µM | UO-31 > 100 µM | BT-549 > 100 µM | NCI-H522 > 100 µM | UACC-62 > 100 µM | SF-295 > 100 µM | NCI-H226 > 100 µM | SK-MEL-28 > 100 µM | HOP-92 > 100 µM

CC(C)N1CC2CN(Cc3ccccc3)CC(C1)C2=O
inactive: Malme-3M > 100 µM | MDA-MB-231 > 100 µM | NCI/ADR-RES > 100 µM | MCF7 > 100 µM | HT-29 > 100 µM | 786-0 > 100 µM | SF-268 > 100 µM | SK-OV-3 > 100 µM | SNB-19 > 100 µM | UO-31 > 100 µM | BT-549 > 100 µM | NCI-H522 > 100 µM | UACC-62 > 100 µM | SF-295 > 100 µM | NCI-H226 > 100 µM | SK-MEL-28 > 100 µM | HOP-92 > 100 µM

CCOC(=O)[C@H](CO)NC1=C(Cl)C(=O)c2c(O)ccc(O)c2C1=O
inactive: Malme-3M > 10 µM | MDA-MB-231 > 10 µM | NCI/ADR-RES > 10 µM | MCF7 3.21 µM | EKVX > 10 µM | SK-MEL-5 > 10 µM | HT-29 5.33 µM | 786-0 > 10 µM | SF-268 > 10 µM | SK-OV-3 > 10 µM | SNB-19 > 10 µM | BT-549 > 10 µM | NCI-H522 > 10 µM | UACC-62 > 10 µM | SF-295 > 10 µM | NCI-H226 > 10 µM | SK-MEL-28 > 10 µM | HOP-92 > 10 µM

COc1cc(C2SCC(=O)N2c2ccc(-c3ccc(-n4c(-c5ccccc5)nc5ccccc5c4=O)cc3)cc2)cc(OC)c1OC (stereo not drawn)
inactive: Malme-3M 31.7 µM | MDA-MB-231 15.6 µM | NCI/ADR-RES 29.2 µM | MCF7 26.2 µM | EKVX 37.5 µM | SK-MEL-5 22.4 µM | HT-29 33.3 µM | 786-0 16.2 µM | SF-268 63 µM | SK-OV-3 57.3 µM | SNB-19 26.5 µM | UO-31 25.2 µM | BT-549 17.3 µM | NCI-H522 13.4 µM | UACC-62 21.2 µM | NCI-H226 > 100 µM | SK-MEL-28 21.9 µM | HOP-92 50.7 µM

CC[N+](C)(CC)Cc1ccccc1[N+](=O)[O-]
inactive: Malme-3M > 100 µM | MDA-MB-231 72.8 µM | NCI/ADR-RES > 100 µM | MCF7 > 100 µM | EKVX 32.3 µM | SK-MEL-5 > 100 µM | HT-29 36.1 µM | 786-0 > 100 µM | SF-268 59.4 µM | SK-OV-3 > 100 µM | UO-31 > 100 µM | BT-549 36 µM | NCI-H522 > 100 µM | UACC-62 > 100 µM | SF-295 > 100 µM | NCI-H226 64.7 µM | SK-MEL-28 > 100 µM | HOP-92 > 100 µM
